Measured values reported in patent US6130204A (Merck & Co., Inc., priority 1998, dated 2000).
pEC50: −log10 of the molar value.

Tested on: free PSA
Test: not given
Settings: not given

| cleaved bond | Compound |
| --- | --- |
| Gln-Ser | Ac-AlaAsnLysAlaSerTyrGln.vertline.SerAlaSerThrGlu-amide |
| Gln-Ser | Ac-AlaAsnGluIleSerTyrGln.vertline.SerAlaSerThrGlu-amide |
| Gln-Ser | Ac-SerTyrGln.vertline.SerSerSerThrGlu-amide |
| Gln-Ser | Ac-AlaAsnSerTyrGln.vertline.SerSerSerThrGlu-amide |
| Gln-Ser | Ac-AlaAsnLysIleSerTyrGln.vertline.SerSerSerThrLeu |
| Gln-Ser | Ac-AsnLysIleSerTyrGln.vertline.SerSer-amide |
| Tyr-Ser | Ac-AlaAsnLysIleSerTyrTyr.vertline.SerSerSerThrGlu-amide |
| Gln-Ser | Ac-hArg(Cha)Gln.vertline.SerSerSer(ethylester-Leu) |
| Gln-Ser | Ac-AlaAsnLysIleSerTyrGln.vertline.SerSerLysThrGlu-amide |
| Tyr-Ser | Ac-AlaAsnLysIleSerTyrTyr.vertline.SerAlaSerThrGlu-amide |
| Gln-Ser | Ac-AlaAsnLysIleSerTyrGln.vertline.SerSerSerThrLeu-amide |
| Gln-Ser | Ac-AlaAsnLysIleSerTyrGln.vertline.SerSerGlnThrGlu-amide |

The next lines start with the compound.

| Compound | cleaved bond |
| --- | --- |
| Ac-AlaAsnLysIleSerTyrGln.vertline.SerSerThrGlu-amide | Gln-Ser |
| Ac-AlaAsnLysAlaSerTyrGln.vertline.SerAlaSerCys-amide | Gln-Ser |
| Ac-AlaAsnLysIleSerTyrGln.vertline.SerSerSerThrGlu-amide | Gln-Ser |
| Ac-AlaSerTyrGln.vertline.SerSerThrGlu-amide | Gln-Ser |
| AlaAsnLysIleSerTyrGln.vertline.SerSerSerThrGlu-amide | Gln-Ser |
| Ac-hArgTyrGln.vertline.SerSerSer(Ethylester-Leu) | Gln-Ser |
| Ac-AlaSerTyrGln.vertline.SerSerLeu-amide | Gln-Ser |
| Ac-AlaAsnLysIleSerTyrGln.vertline.SerAlaSerThrGlu-amide | Gln-Ser |
| Ac-LysIleSerTyrGln.vertline.SerSer-amide | Gln-Ser |
| Ac-SerTyrGln.vertline.SerSerThrGlu-amide | Gln-Ser |
| Ac-hArgTyrGln.vertline.SerSerSer(MeLeu) | Gln-Ser |
| Ac-AlaAspLysAlaLysTyrGln.vertline.SerSer(Cha)-NHNH2 | Gln-Ser |
| Ac-AlaSerTyrGln.vertline.SerSerSerThrGlu-amide | Gln-Ser |
| Ac-AlaAsnLysIleSerTyrGln.vertline.SerAlaLysThrGlu-amide | Gln-Ser |
| Ac-AlaAsnLysIleSerTyrGln.vertline.SerThrGlu-amide | Gln-Ser |
| Ac-AlaAsnLysSerTyrGln.vertline.SerSerThrGlu-amide | Gln-Ser |

Tested on: LNCaP prostate tumor cells
Test: In vitro cytotoxicity of peptidyl derivatives of doxorubicin (Alamar Blue assay)
Type: cell-based, human
Settings: FIG. 4, cells incubated 3 days at 37° C.
Method: The cytotoxicities of the non-cleaveable oligopeptide-doxorubicin conjugates, prepared as described in Example 4, against a line of cells which is known to be killed by unmodified doxorubicin were assessed with an Alamar Blue assay. Specifically, cell cultures of LNCaP prostate tumor cells, which are a human metastatic prostate adenocarcinoma isolated from a needle biopsy of a lymph node (LNCaP.FGC: American Type Culture Collection, ATCC CRL 1740), or DuPRO cells in 96 well plates were diluted with medium containing various concentrations of a given conjugate (final plate well volume of 200 μl). The cells were incubated for 3 days at 37° C. and then 20 μl of Alamar Blue was added to the assay well. The cells were further incubated and the assay plates were read on a EL-310 ELISA reader at the dual wavelengths of 570 and 600 nm at 4 and 7 hours after addition of Alamar Blue. Relative percentage viability at the various concentration of conjugate tested was then calculated versus control (no conjugate) cultures. Cytotoxicities of unmodified doxorubicin and unmodified oligopeptide were also assessed.

| Compound | pEC50 |
| --- | --- |
| COc1cccc2c1C(=O)c1c(O)c3c(c(O)c1C2=O)C[C@@](O)(C(=O)CO)C[C@@H]3O[C@H]1C[C@H](N)[C@H](O)[C@H](C)O1 [doxorubicin] | 6.52 |
